This is an account of results in US20130137975A1, “PET IMAGING” (OSI PHARMACEUTICALS, LLC, priority 2010, published 2013).

Where two headings read alike, the source gives them in different places.

The subject of test [1] is H292 cells. The experiment in a line: 3H-2-deoxyglucose uptake assay in H292 cells. The test is classed as cell-based. The conditions noted are these: for 3H-2-deoxyglucose uptake (FIG. 16): 30 minute treatment, selected concentrations of each agent. As to the method: (§1) H292 and H441 cells were seeded in 12 well microtiter plates (Becton Dickinson) at 9.0×10^5 cells per well in normal glucose (11.1 mM) media for 6 hours (n=3 wells/group). The media was then changed to 5.5 mM glucose media and the cells were allowed to equilibrate overnight. On the day of the assay the media was again removed and replaced with 0.0 mM glucose (glucose starvation) for three hours. […] After a 5, 30, or 45-minute exposure the media was removed, the cells placed on ice and washed with ice-cold PBS buffer solution. The PBS was then removed and the cells were lysed in RIPA buffer for 15 minutes on ice. The lysates were harvested and counted in a Packard Liquid Scintillation counter.

Test [2] deals with H292 cells. As to the kind of experiment: analysis for cell death by FACS. The conditions noted are these: 1.0-30 μM, compared to 0.05% DMSO controls. The test is classed as cell-based. (In flow cytometry, cells or beads pass a laser one at a time.)
The test system of another test is H441 xenografts. As to the kind of experiment: 18F-FDG-PET imaging of H441 xenografts. The format is in vivo, athymic nu/nu mice. The conditions noted are these: 60 mg/kg oral; any time point evaluated (2, 4, 24 hours). As to the method:
(§2) Palpable tumors were evident approximately 10 days post implant. […] Mice were fasted from food 12 hours prior to imaging with ^18F-FDG (VUIIS Cyclotron). […] After dosing, the mice were kept isolated in a chamber at a constant temperature of 30° C. using a warm air circulating device (Harvard Apparatus). […] After 30 minutes, PET imaging was performed using a Concord small animal PET imager. Images were then collected and reconstructed. Analyses of separate regions of interest (ROI) drawn over the area of the tumors (and muscle) were conducted and glucose uptake was calculated as % injected dose per gram of tissue against known phantom standards.

The next test has as its system pERK, pAKT, pS6, AS160. As to the kind of experiment: Western blot of NCI-H292 tumor lysates in vivo, markers of altered glycolysis. The arrangement: species or system mice. Particulars: 60 mg/kg. As to the method:
(§3) Palpable tumors were evident approximately 10 days post implant. When the tumors achieved a volume of approximately 300 mm^3, the animals were sorted, randomized, and placed on study.
Tumors were homogenized in 1 mL of TGH buffer per 200 mg of tissue on ice at 15,000 rpm until total homogenization was achieved. For analysis of IGF-1R and IR phosphorylation status, after pre-clearing by centrifugation (14,000 rpm/5 minutes), the lysate was incubated overnight at 4° C. with an antiphosphotyrosine antibody, and 30 μL Protein A-sephorase was then added and further incubated for an additional two hours. […] Antibodies were obtained from Santa Cruz Biotechnology.

For another test, the system named is NCI-H441 cells. The experiment in a line: 3H-2-deoxyglucose uptake assay in H441 cells. The format is cell-based. Particulars: 30 minutes after treatment; higher doses than in NCI H292 cells. As to the method: as §1
Another test concerns the target T1, pIGF-1R (Homo sapiens, UniProt P08069).
T1 construct: endogenous in cells; host or cells: NCI-H292
The experiment in a line: Western blot of NCI-H292 cells, target inhibition. The test is classed as cell-based. On the technique in general: Immunoblotting shows a protein as a band on a membrane.

Another test concerns the target T2, phospho-IGF1-R (Homo sapiens, UniProt P08069).
T2 construct: endogenous in cells; host or cells: NCI-H292 cells grown as subcutaneous xenograft tumours in athymic nu/nu mice
As to the kind of experiment: target inhibition in H292 tumor lysates in vivo (RTK array analysis). The arrangement: species or system mice. Particulars: for inhibition at 60 mg/kg: NCI-H292, read-out: target inhibition of phospho-IGF1-R, single dose 60 mg/kg. The text has this:
All animal studies were under the approval of the Institutional Animal Care and Use Committee in an American Association for Accreditation of Laboratory Animal Care-accredited vivarium and in accordance with the Institute of Laboratory Animal Research (Guide for Care and Use of Laboratory Animals, NIH, Bethesda, Md.). Mice were 8-week-old athymic nu/nu mice (Charles Rivers) and were housed in clean specific pathogen free rooms in groups of four mice per cage. The mice were allowed access to sterile rodent chow and water ad libitum except when undergoing FDG-PET imaging, as noted. The H292 and H441 cells were harvested from T225 flasks at 90% confluency and implanted in the right thigh subcutaneously at a concentration of 1.0×10^7 cells per 100 μL of PBS inoculum. […] When the tumors achieved a volume of approximately 300 mm^3, the animals were sorted, randomized, and placed on study.
Tumor lysates were prepared according to the manufacturer's protocol (Proteome Profiler, R&D Systems). Briefly, tumor lysates were solubilized in NP-40 lysis buffer and re-suspended for 30 minutes at 2° C. with rocking. This preparation was centrifuged at 14,000×g for 5 minutes and transferred to a clean tube. Protein concentration was then determined by BCA assay. The lysate was then incubated with the Human Phospho-RTK array at 1000 μg overnight at 2° C. with rocking. The arrays were then washed, and incubated with freshly prepared detection antibody for two hours. After washing, the arrays were exposed to film for 0.5-3.0 minutes. The developed arrays were then quantitfied using a Kodak scanner and image analysis software.

A further test addresses IGF-1R (Homo sapiens, UniProt P08069). The conditions noted are these: 1 μM OSI-906; panel of 116 kinases; cited from earlier work.
The subject of another test is NCI-H441 xenografts. As to the kind of experiment: tumor growth of NCI-H441 xenografts under daily treatment. The test is classed as in vivo, mice. Particulars: daily treatment with 60 mg/kg.
Excerpt: as §3

The subject of a further test is NCI H292 xenografts. The experiment in a line: tumor growth of NCI H292 xenografts under daily treatment. The test is classed as in vivo, mice. Particulars: daily treatment with 60 mg/kg.
Excerpt: as §3

A further test has as its system H292 tumors. The experiment in a line: 18F-FDG biodistribution study, H292 tumors. The test is classed as in vivo, athymic nu/nu mice. The conditions noted are these: 60 mg/kg oral; between 2 and 8 hours post treatment; scintillation counting. As to the method: Palpable tumors were evident approximately 10 days post implant. […] Mice were fasted for 12-16 hours prior to dosing with the radiopharmaceutical. […] Mice were kept isolated and under a warming lamp at a temperature of approximately 30° C. One hour before the desired sacrifice time, the mice were dosed with 4-6 μCi of ^18F-FDG via the lateral tail vein. The mice were sacrificed 60 minutes later via CO2 asphyxiation, and selected tissues removed, rinsed, weighed and then placed into scintillation tubes. The samples were counted using a Cobra II Scintillation Counter and the % injected dose per gram of tissue calculated against prepared standards.

Another test concerns H292 xenografts. The experiment in a line: 18F-FDG-PET imaging of H292 xenografts. The format is in vivo, athymic nu/nu mice. Particulars: 60 mg/kg oral; 2 and 4 hours post dosing. As to the method:
as §2

The subject of a further test is pAKT, pS6, pERK, AS160. As to the kind of experiment: Western blot of H292 in vitro cell lysates, downstream markers of altered glycolysis. The format is cell-based.

T2 sequence (P08069 31-1367): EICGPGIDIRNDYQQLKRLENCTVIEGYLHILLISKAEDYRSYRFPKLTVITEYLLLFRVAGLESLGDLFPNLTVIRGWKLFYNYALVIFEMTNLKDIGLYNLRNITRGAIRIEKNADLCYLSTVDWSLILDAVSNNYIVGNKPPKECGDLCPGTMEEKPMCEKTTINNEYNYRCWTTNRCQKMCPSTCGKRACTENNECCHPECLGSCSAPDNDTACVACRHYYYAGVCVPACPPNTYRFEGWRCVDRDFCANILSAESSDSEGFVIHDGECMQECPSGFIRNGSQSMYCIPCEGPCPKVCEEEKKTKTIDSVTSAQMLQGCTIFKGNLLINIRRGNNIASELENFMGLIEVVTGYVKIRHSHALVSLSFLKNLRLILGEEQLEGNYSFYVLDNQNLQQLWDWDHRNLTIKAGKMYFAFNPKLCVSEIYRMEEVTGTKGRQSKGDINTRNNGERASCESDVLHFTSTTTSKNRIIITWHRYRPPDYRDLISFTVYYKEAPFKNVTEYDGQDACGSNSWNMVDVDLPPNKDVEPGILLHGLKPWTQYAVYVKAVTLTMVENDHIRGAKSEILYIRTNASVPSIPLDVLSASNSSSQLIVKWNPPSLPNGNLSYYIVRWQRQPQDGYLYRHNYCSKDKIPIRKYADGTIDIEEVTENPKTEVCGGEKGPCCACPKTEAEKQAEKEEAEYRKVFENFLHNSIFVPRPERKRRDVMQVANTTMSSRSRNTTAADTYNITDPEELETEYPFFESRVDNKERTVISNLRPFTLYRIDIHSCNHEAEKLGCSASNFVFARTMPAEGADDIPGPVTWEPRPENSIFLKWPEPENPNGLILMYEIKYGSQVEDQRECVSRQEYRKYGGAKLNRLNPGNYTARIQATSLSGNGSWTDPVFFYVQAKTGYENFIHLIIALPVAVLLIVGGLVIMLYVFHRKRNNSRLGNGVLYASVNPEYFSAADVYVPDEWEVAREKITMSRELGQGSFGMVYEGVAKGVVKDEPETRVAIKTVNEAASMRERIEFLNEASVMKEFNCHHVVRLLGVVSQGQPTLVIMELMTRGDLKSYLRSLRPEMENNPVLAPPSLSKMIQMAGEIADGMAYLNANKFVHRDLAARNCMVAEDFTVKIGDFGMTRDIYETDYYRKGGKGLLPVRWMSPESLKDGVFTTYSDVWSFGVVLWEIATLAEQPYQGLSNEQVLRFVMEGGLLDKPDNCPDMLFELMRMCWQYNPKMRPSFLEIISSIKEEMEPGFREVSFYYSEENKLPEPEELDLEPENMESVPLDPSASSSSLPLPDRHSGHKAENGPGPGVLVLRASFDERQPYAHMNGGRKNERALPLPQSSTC
T1 sequence (P08069 31-1367): as above
IGF-1R, sequence (P08069 31-1367): as above

Take `C=C1[C@@H](C)[C@H]2[C@H](Cc3ccccc3)NC(=O)[C@]23OC(=O)/C=C/[C@H](O)CCC[C@@H](C)C/C=C/[C@H]3[C@@H]1O` [Cytochalasin B, reference compound]: the “3H-2-deoxyglucose uptake, positive control” value in the test on H292 cells [1] (2.5-10 μM, 30 minutes post treatment (FIG. 3)) is given as “significantly inhibits uptake”.

On to `CC1(O)CC(c2nc(-c3ccc4ccc(-c5ccccc5)nc4c3)c3c(N)nccn23)C1` (stereo not drawn) [OSI-906, cis-3-[8-amino-1-(2-phenyl-quinolin-7-yl)-imidazo[1,5-a]pyrazin-3-yl]-1-methylcyclobutanol], for which the “cell death by FACS analysis” value with H292 cells [2] is “no significant cell death”. The entries for the “18F-FDG uptake (PET SUV)” value in the test on H441 xenografts and in the test with H292 xenografts were “do not demonstrate a significant change” and “significant decrease”, respectively. Also, the “phospho-AKT, phospho-S6, phospho-ERK and AS160 in tumor lysates” value with pERK, pAKT, pS6, AS160 (4 hours post treatment, compared to untreated control lysates) is given as “decreased signal intensity”. In addition, the “pERK, pAKT, pS6 in tumor lysates” value in the test on pERK, pAKT, pS6, AS160 (24 hours post dose) is listed as “return to baseline levels”. Further, in the test on NCI-H441 cells, the “3H-2-deoxyglucose uptake (FIG. 13)” value is “dose dependent decrease”. Moreover, on pIGF-1R (30 minutes of exposure, all doses (FIG. 12)), the pIGF-1R result was “target inhibition”. The “pIGF-1R, time course” value is “reduction” on pIGF-1R (2 hours, all concentrations (10 nM, 100 nM, 500 nM)) and “inhibition remains through 24 hours in all but the lowest, 10 nM concentration” on pIGF-1R (through 24 hours, 10 nM, 100 nM, 500 nM). Moreover, the inhibition at 60 mg/kg on phospho-IGF1-R (2 and 4 hours post treatment) is around 85%; on phospho-IGF1-R (24 hours), 70%. Further, the “target inhibition of pIGF-1R, RTK array (FIGS. 17 and 18)” value at phospho-IGF1-R (single 60 mg/kg treatment, 2, 4 and 24 hours) is on record as “strong target inhibition”. In addition, the “inhibition of IGF-1R” value at IGF-1R is “greater than 50%”. Moreover, in the test on NCI-H441 xenografts, the “tumor growth compared to vehicle-treated cohort” value is given as “do not exhibit a difference in tumor growth”. For the same compound, the “tumor growth compared to vehicle controls” value with NCI H292 xenografts is on record as “significant tumor growth inhibition”. Also, in the test with H292 tumors, the “decrease of 18F-FDG uptake in tumor samples compared to vehicle control animals” value is 20-50%. The “3H-2-deoxyglucose uptake (FIG. 16)” value in the test on H292 cells [1] is on record as “rapid inhibition”. The “3H-2-deoxyglucose uptake, onset” value in the test with H292 cells [1] (as early as five minutes post treatment, increasing concentrations) is recorded as “significant decrease”. Further, the “signal intensity of phospho-AKT, phospho-S6 and AS160 bands” value in the test with pAKT, pS6, pERK, AS160 (0.0 μM-30 μM, 30 minutes after drug treatment (FIG. 11)) is listed as “dose dependent response with respect to decreased signal intensity”. In addition, the “downstream targets pERK, pAKT, pS6, AS160” value in the test with pAKT, pS6, pERK, AS160 (30 minutes of exposure (FIG. 12)) is reported as “inhibition of downstream targets”.

As for `C#Cc1cccc(Nc2ncnc3cc(OCCOC)c(OCCOC)cc23)c1` [erlotinib, reference compound], the “3H-2-deoxyglucose uptake (FIG. 16)” value in the test on H292 cells [1] is listed as “rapid inhibition”.
